{
  "source": "patent US5183821A",
  "about": "“Method for treating leukemias using N-(2-dimethylaminoethyl)-3-amino-1,8-naphthalimide for treating leukemias and solid tumors” (priority 1991, dated 1993)",
  "key": {"[1]": {"tested_on": "L-1210 Lymphoid leukemia", "test": "Experiment 8: L-1210 s.c., 10^6 cells, acid diluted with saline, female", "type": "in vivo, Mouse CD2 F (CDF1)", "description": "Tumor: L-1210 Lymphoid leukemia\nInoculum Site: Subcutaneous\n(§1) Vehicle: Acid diluted with saline\nTreatment schedule (relative to tumor inoculation day) daily on days 1-9\nDay of evaluation (relative to tumor inoculation day): 30\n(§2) Parameter: Median survival time (MST) in days\n(§3) NCI minimal activity criteria: Percent T/C≥125\n(§4) Percent T/C: Ratio of test (T) evaluation to control (C) evaluation expressed as a percentage"}, "[2]": {"tested_on": "B16 Melanocarcinoma", "test": "Experiment 19: B16 i.p., acid diluted with saline, female", "type": "in vivo, Mouse B6 D2 F1", "description": "Tumor: B16 Melanocarcinoma\nInoculum Site: Intraperitoneal\nTissue: Homogenate (or brei), tumor\nas §1\nTreatment schedule: (relative to tumor inoculation day): daily on days 1-9\nDay of evaluation (relative to tumor inoculation day): 60\nas §2, §3, §4"}, "[3]": {"tested_on": "Fischer 344 rats", "test": "Five daily dose rat toxicity study", "type": "in vivo", "experimental": "Preclinical toxicity studies of BIDA were completed in CD2F1 Mice, Fischer 344 rats and beagle dogs (4). The animals were injected IV with a single bolus or daily for five days.\nA preclinical toxicology study of benzisoquinolinedione (NSC-308847) was done at Springborn Institute for Bioresearch, Inc. using CD2 F1 mice, Fischer 344 rats and beagle dogs. Animals were injected intravenously on a single dose (X1) or five daily dose (X5) regimen. Bulk drug was titrated with 0.5N HCl to form a salt solution of benzisoquinolinedione at a pH of 5.0-6.5. Sterile 0.9% saline was used for diluting the dosing solutions and was used for the vehicle control animals.\nThe following summarizes the major organ toxicities resulting from IV administration of benzisoquinolinedione to rats."}, "[4]": {"settings": "12.0 mg/kg/day, listed as benzisoquinolinedione"}, "[5]": {"settings": "24.0 mg/kg/day, females, day 8-9"}, "[6]": {"settings": "24.0 mg/kg/day, listed as benzisoquinolinedione"}},
  "note": "Entries after “also recorded” stand apart in the source; their conditions may differ.",
  "data": [
    {"smiles": "CN(C)CCN1C(=O)c2cccc3cc(N)cc(c23)C1=O", "note": "[Example 9, 1H-Benz[de]isoquinoline-1,3(2H)-dione, 5-amino-2-[2-(dimethylamino)ethyl]]", "values": [
      {"measurement": "Median survival time (MST)", "setting": "[1]; 5.00 mg/kg i.p.", "value": 9.0, "unit": "days"},
      {"measurement": "Percent T/C", "setting": "[1]; 5.00 mg/kg i.p.", "value": 105, "unit": "%"},
      {"measurement": "Median survival time (MST)", "setting": "[1]; 7.00 mg/kg i.p.", "value": 9.8, "unit": "days"},
      {"measurement": "Percent T/C", "setting": "[1]; 7.00 mg/kg i.p.", "value": 110, "unit": "%"},
      {"measurement": "Median survival time (MST)", "setting": "[1]; 10.00 mg/kg i.p.", "value": 10.7, "unit": "days"},
      {"measurement": "Percent T/C", "setting": "[1]; 10.00 mg/kg i.p.", "value": 125, "unit": "%"},
      {"measurement": "Median survival time (MST)", "setting": "[1]; 16.00 mg/kg i.p.", "value": 12.3, "unit": "days"},
      {"measurement": "Percent T/C", "setting": "[1]; 16.00 mg/kg i.p.", "value": 144, "unit": "%"},
      {"measurement": "Median survival time (MST)", "setting": "[1]; 24.00 mg/kg i.p.", "value": 31.3, "unit": "days"},
      {"measurement": "Percent T/C", "setting": "[1]; 24.00 mg/kg i.p.", "value": 132, "unit": "%"},
      {"measurement": "Median survival time (MST)", "setting": "[2]; 1.00 mg/kg i.p.", "value": 19.8, "unit": "days"},
      {"measurement": "Percent T/C", "setting": "[2]; 1.00 mg/kg i.p.", "value": 99, "unit": "%"},
      {"measurement": "Median survival time (MST)", "setting": "[2]; 2.00 mg/kg i.p.", "value": 21.9, "unit": "days"},
      {"measurement": "Percent T/C", "setting": "[2]; 2.00 mg/kg i.p.", "value": 110, "unit": "%"},
      {"measurement": "Median survival time (MST)", "setting": "[2]; 4.00 mg/kg i.p.", "value": 22.8, "unit": "days"},
      {"measurement": "Percent T/C", "setting": "[2]; 4.00 mg/kg i.p.", "value": 114, "unit": "%"},
      {"measurement": "Median survival time (MST)", "setting": "[2]; 8.00 mg/kg i.p.", "value": 24.3, "unit": "days"},
      {"measurement": "Percent T/C", "setting": "[2]; 8.00 mg/kg i.p.", "value": 122, "unit": "%"},
      {"measurement": "Median survival time (MST)", "setting": "[2]; 16.00 mg/kg i.p.", "value": 31.0, "unit": "days"},
      {"measurement": "Percent T/C", "setting": "[2]; 16.00 mg/kg i.p.", "value": 155, "unit": "%"},
      {"measurement": "Median survival time (MST)", "setting": "[2]; 32.00 mg/kg i.p.", "value": 6.8, "unit": "days"},
      {"measurement": "gross or microscopic lesions", "setting": "[3]; 6.0 mg/kg", "value": "No drug-related gross or microscopic lesions were found"},
      {"measurement": "Mortality / lethality", "setting": "[3]; 6.0 mg/kg/day (1/2MELD10)", "value": "0/20"},
      {"measurement": "Hematologic findings", "setting": "[3]; 6.0 mg/kg, listed as benzisoquinolinedione", "value": "Female rats showed moderate increases in reticulocytes on days 15 and 22, followed by a moderate decrease on day 36; also recorded: The males were not affected"},
      {"measurement": "Mortality / lethality", "setting": "[3]; 12.0 mg/kg/day (MELD10)", "value": "0/20"},
      {"measurement": "Reproductive findings", "setting": "[3]; 12.0 mg/kg/day, day 36, listed as benzisoquinolinedione", "value": "slight decrease in testicular weight on day 36; also recorded: moderate testicular atrophy in all males"},
      {"measurement": "mild to moderate diffuse bone marrow atrophy, incidence", "setting": "[3]; 12.0 mg/kg/day, females, day 8", "value": "4/5"},
      {"measurement": "Hematologic findings", "setting": "[3]; [4]", "value": "Slight decreases in hemoglobin, hematocrit and red blood cells were seen in female rats on day 8; also recorded: moderate reticulocytopenia; also recorded: male rats had a mild increase in reticulocytes on day 22; also recorded: Females had slight to mild leukocytosis on days 15 and 22; also recorded: The males had a moderate increase in WBC only on day 15; also recorded: No microscopic lesions were seen on day 36 in either sex"},
      {"measurement": "Integumentary findings", "setting": "[3]; [4]", "value": "dry yellowish-white scaly tails; also recorded: microscopic evaluation did not show any tail lesions"},
      {"measurement": "mild thymic atrophy, incidence", "setting": "[3]; 12.0 mg/kg/day, males, day 8", "value": "1/5"},
      {"measurement": "mild to moderate diffuse bone marrow atrophy, incidence", "setting": "[3]; 12.0 mg/kg/day, males, day 8", "value": "4/5"},
      {"measurement": "Mortality / lethality", "setting": "[3]; 24.0 mg/kg/day (2XMELD10), listed as benzisoquinolinedione", "value": "5/20 and Two females were found dead and three females were sacrificed"},
      {"measurement": "marked testicular atrophy, incidence", "setting": "[3]; 24.0 mg/kg/day, day 36", "value": "2/5"},
      {"measurement": "moderate testicular atrophy, incidence", "setting": "[3]; 24.0 mg/kg/day, day 36", "value": "2/5"},
      {"measurement": "severe testicular atrophy, incidence", "setting": "[3]; 24.0 mg/kg/day, day 36", "value": "1/5"},
      {"measurement": "moderate to marked spleen atrophy, incidence", "setting": "[3]; 24.0 mg/kg/day, females", "value": "3/10"},
      {"measurement": "marked jejunal epithelial degeneration, incidence", "setting": "[3]; 24.0 mg/kg/day, females, day 8", "value": "5/10"},
      {"measurement": "marked necrosis of mesenteric lymph node, incidence", "setting": "[3]; 24.0 mg/kg/day, females, day 8", "value": "1/10"},
      {"measurement": "mild atrophy of mesenteric lymph node, incidence", "setting": "[3]; 24.0 mg/kg/day, females, day 8", "value": "1/10"},
      {"measurement": "mild to marked duodenal epithelial degeneration, incidence", "setting": "[3]; 24.0 mg/kg/day, females, day 8", "value": "5/10"},
      {"measurement": "mild to marked duodenal epithelial necrosis, incidence", "setting": "[3]; 24.0 mg/kg/day, females, day 8", "value": "7/10"},
      {"measurement": "mild to marked ileal epithelial necrosis, incidence", "setting": "[3]; 24.0 mg/kg/day, females, day 8", "value": "10/10"},
      {"measurement": "mild to marked jejunal epithelial necrosis, incidence", "setting": "[3]; 24.0 mg/kg/day, females, day 8", "value": "9/10"},
      {"measurement": "mild to severe colonic epithelial necrosis, incidence", "setting": "[3]; 24.0 mg/kg/day, females, day 8", "value": "3/10"},
      {"measurement": "moderate to marked ileal epithelial degeneration, incidence", "setting": "[3]; 24.0 mg/kg/day, females, day 8", "value": "5/10"},
      {"measurement": "marked to severe bone marrow atrophy, incidence", "setting": "[3]; [5]", "value": "10/10"},
      {"measurement": "marked to severe thymic atrophy, incidence", "setting": "[3]; [5]", "value": "9/10"},
      {"measurement": "Hepatic findings", "setting": "[3]; 24.0 mg/kg/day, females, day 9", "value": "multifocal liver necrosis in two females"},
      {"measurement": "Gastrointestinal findings", "setting": "[3]; [6]", "value": "Diarrhea was observed on days 6 to 10 in males and days 6 to termination (day 8 or 9) in females; also recorded: mild to marked epithelial degeneration and necrosis of the duodenum, jejunum and ileum of both sexes; also recorded: No lesions were seen in long-term males; also recorded: emaciation (days 7-12) and dehydration (days 9-12)"},
      {"measurement": "Hematologic findings", "setting": "[3]; [6]", "value": "Mild increases in hemoglobin, hematocrit and red blood cells were seen in male rats on day 8; also recorded: moderate to slight decreases in these parameters on days 15 and 22; also recorded: No reticulocytes were observable in either sex on day 8; also recorded: marked decreases being seen on day 8, followed by moderate to marked increases above baselines on days 15 and 22; also recorded: mild thrombocytosis"}
    ]}
  ]
}
